According to patent US9688736B2, “Compound for treatment of severe hypoglycemia” (Eli Lilly and Company, priority 2013, dated 2017):
Read-outs that look alike come from different tables or passages of the source. Square brackets hold non-standard residues; d marks the D form. Peptide text beside a SMILES is read from it. Aib = CC(C)(N)C(=O)O

Key:
[1] = molecular target: T1, human GIP-R (Homo sapiens, UniProt P48546); test: Glucose-dependent insulinotropic peptide receptor binding assay (SPA); details: CHO-S membranes, radioiodinated GIP
T1 construct: expressed in transfected cells; host or cells: CHO-S suspension cells (crude plasma membranes)
T1 sequence (P48546 22-466): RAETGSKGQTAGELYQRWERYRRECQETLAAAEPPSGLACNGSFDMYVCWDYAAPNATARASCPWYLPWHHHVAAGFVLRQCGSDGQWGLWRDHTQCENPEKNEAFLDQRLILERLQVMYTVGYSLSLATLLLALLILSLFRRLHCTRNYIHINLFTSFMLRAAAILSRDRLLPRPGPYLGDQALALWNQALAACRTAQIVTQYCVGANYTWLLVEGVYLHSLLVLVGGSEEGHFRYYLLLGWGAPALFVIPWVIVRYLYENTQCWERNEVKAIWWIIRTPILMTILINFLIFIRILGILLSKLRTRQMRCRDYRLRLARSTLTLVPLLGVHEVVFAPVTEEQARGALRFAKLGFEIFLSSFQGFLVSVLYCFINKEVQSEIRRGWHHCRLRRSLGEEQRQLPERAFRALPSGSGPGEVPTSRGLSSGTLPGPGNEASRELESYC

[2] = molecular target: T2, human glucagon receptor (hGR) (Homo sapiens, UniProt P47871); test: Human glucagon receptor stimulated cAMP functional assay; type: cell-based; details: hGR-HEK293 cells, relative EC50, HTRF cAMP
T2 construct: expressed in transfected cells; host or cells: 293HEK (crude plasma membranes)
T2 sequence (P47871 26-477): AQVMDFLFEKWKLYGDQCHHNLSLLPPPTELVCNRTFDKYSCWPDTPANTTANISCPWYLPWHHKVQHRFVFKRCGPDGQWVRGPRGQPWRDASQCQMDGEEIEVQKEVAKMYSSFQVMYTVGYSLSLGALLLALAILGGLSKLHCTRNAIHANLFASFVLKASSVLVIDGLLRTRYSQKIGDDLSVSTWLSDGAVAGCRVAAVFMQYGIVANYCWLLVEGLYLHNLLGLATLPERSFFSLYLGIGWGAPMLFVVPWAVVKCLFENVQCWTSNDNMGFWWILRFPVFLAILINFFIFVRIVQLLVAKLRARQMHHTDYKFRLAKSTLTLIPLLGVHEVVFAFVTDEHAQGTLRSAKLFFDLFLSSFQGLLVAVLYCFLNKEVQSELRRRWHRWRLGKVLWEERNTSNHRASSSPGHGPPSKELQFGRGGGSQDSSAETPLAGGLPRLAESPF
Protocol: Cells are stimulated with glucagon, buffer controls, or Test samples, and the cAMP generated within the cell is quantitated using the CisBio cAMP Dynamic 2 HTRF Assay Kit (62AM4PEC). Briefly, cAMP levels within the cell are detected by binding to the cAMP-d2 capture antibody in the presence of cell lysis buffer. A second detection antibody provided in the kit, anti-cAMP Cryptate, is added to create a competitive sandwich assay. When the detection antibody complex formed there is an increase in the signal that is measured on a Perkin-Elmer Envision® instrument.
The hGR-HEK293 cells are harvested from sub-confluent tissue culture dishes with Enzyme-Free Cell Dissociation Solution (Specialty Media 5-004-B). The cells are pelleted at 100× g at room temperature for 5 minutes then washed twice with phosphate buffered saline (PBS). […] The cells are then pelleted at 100× g at room temperature for 5 minutes. […] Test samples are prepared as 2 mM stocks in DMSO and frozen at −20° C. until needed. […] The reaction is stopped by addition of 20 μL of the cAMP-d2-capture antibody (CisBio) diluted into the CisBio lysis buffer then gently mixed in [sequence] shaker. […] The lysed cell and antibody mixtures are read after 1 hour at room temperature using the Perkin-Elmer Envision®. […]

[3] = type: physicochemical
Protocol: The compound of SEQ ID NO: 2 is dissolved in 20 mM Tris-HCl/H2O, pH 8 to a 1 mg/mL concentration (peptide content), and filtered through a 0.22 micron filter (Millex, SLGV004SL). Solution is transferred to three vials: one for 4° C.; one for 30° C. and one for 40° C. […]. Samples are visually assessed at different time points for turbidity and phase separation.

[4] = molecular target: T3, mouse glucagon receptor (mGR) (Mus musculus, UniProt Q61606); test: Mouse glucagon receptor binding assay (SPA); details: 293HEK membranes, 125I-labelled glucagon
T3 construct: expressed in transfected cells; host or cells: 293HEK cells in suspension culture (crude plasma membranes)
T3 sequence (Q61606 27-485): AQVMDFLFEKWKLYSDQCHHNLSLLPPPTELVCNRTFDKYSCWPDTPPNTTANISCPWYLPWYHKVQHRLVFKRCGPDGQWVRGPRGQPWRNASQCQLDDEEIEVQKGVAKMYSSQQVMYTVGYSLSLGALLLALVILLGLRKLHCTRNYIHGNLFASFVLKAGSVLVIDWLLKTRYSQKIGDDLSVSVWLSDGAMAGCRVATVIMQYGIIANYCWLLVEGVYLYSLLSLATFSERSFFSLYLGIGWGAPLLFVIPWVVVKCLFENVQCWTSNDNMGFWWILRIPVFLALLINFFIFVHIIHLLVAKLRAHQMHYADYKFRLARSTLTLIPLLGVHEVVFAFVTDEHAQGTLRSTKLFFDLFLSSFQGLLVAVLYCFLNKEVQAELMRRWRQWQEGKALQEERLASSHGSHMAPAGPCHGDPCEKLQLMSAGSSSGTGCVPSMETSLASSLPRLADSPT

[5] = molecular target: T2, human glucagon receptor (hGR); test: Human glucagon receptor binding assay (SPA); details: 293HEK membranes, 125I-labelled glucagon
Protocol: Plates are sealed, mixed end over end, and read with a MicroBeta® scintillation counter after 12 hours of settling time at room temperature.

[6] = tested on: male C57BL6 mice; test: Effects of compound on blood glucose levels in C57/B16 male mice; type: in vivo; details: for Blood glucose levels after dosing: mean ± SEM, n=4
Protocol: To determine the effects of the compound of SEQ ID NO: 2 on blood glucose levels, the compound is administered to C57/B 16 mice. Three month old male C57BL6 mice (Harlan Laboratories) are used Animals are individually housed in a temperature-controlled (24° C.) facility with a 12 hour light/dark cycle, and have free access to food and water. After 1 week acclimation to the facility, mice are randomized to treatment groups (n=4/group). Test compound is formulated in Buffer 2 (see Physical stability test using Thioflavin T binding assay). On the morning of test, food is removed at 08:00 AM. Two hours after food is removed, the test compound is given subcutaneously at 0, 1, 3 or 10 μg/kg doses. Blood glucose is measured at time 0, 15, 30, 60 and 120 minutes after test compound administration with an ACCU-CHECK® (Roche Diagnostics) glucometer. […] Results are expressed as mean ±standard error mean (SEM) of 4 mice per group.
Blood glucose levels at 10 μg/kg of compound of SEQ ID NO: 2 is taken as the maximum value.

[7] = molecular target: T4, human glucagon-like peptide 1 receptor (hGLP-1R) (Homo sapiens, UniProt P43220); test: Glucagon-like-peptide 1 receptor binding assay (SPA); details: 293HEK membranes, 125I-labelled GLP-1 amide
T4 construct: expressed in transfected cells; host or cells: 293HEK suspension cells (crude plasma membranes)
T4 sequence (P43220 24-463): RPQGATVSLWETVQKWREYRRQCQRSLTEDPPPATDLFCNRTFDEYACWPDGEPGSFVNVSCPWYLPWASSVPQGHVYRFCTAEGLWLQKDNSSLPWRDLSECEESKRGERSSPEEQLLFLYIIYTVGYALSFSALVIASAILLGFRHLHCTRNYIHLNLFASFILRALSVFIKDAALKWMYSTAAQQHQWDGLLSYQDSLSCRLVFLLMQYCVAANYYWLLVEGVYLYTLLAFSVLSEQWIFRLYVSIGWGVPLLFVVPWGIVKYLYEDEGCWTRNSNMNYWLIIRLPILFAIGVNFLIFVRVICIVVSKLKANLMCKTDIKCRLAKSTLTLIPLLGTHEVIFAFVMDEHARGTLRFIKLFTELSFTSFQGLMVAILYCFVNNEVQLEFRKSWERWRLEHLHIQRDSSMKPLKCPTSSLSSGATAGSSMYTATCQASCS

[8] = Physical stability test using Thioflavin T binding assay (fibrillation); type: physicochemical; details: 25° C.; for Thioflavin T fluorescence: 1 mg/mL, stirred 300 rpm
Protocol: Fibrillation is a common problem when glucagon is formulated in aqueous solution. To assess the level of fibrillation of the compound of the present invention, a Thioflavin T binding assay is performed.
All samples are mechanically stressed at 25° C. in a magnetic stir plate set at 300 rpm. […] Raw data is collected with Softmax Pro 5.4.1 (Molecular Devices) and imported to Excel.

[9] = pH 8, 120 hours, mechanical stress

Structure (SMILES): CC(C)C[C@H](NC(=O)[C@H](Cc1c[nH]c2ccccc12)NC(=O)[C@H](C)NC(=O)[C@@H](NC(=O)[C@H](Cc1ccccc1)NC(=O)[C@H](CCC(=O)O)NC(=O)[C@H](C)NC(=O)[C@H](C)NC(=O)[C@H](CCCCN)NC(=O)[C@H](CCCCN)NC(=O)C(C)(C)NC(=O)[C@H](CC(=O)O)NC(=O)[C@H](CC(C)C)NC(=O)[C@H](Cc1ccc(O)cc1)NC(=O)[C@H](CCCCN)NC(=O)[C@H](CO)NC(=O)[C@@H](NC(=O)[C@H](CC(=O)O)NC(=O)[C@H](CO)NC(=O)[C@@H](NC(=O)[C@H](Cc1ccccc1)NC(=O)[C@@H](NC(=O)CNC(=O)[C@H](Cc1c[nH]cn1)NC(=O)[C@H](CO)NC(=O)[C@@H](N)Cc1ccc(O)cc1)[C@@H](C)O)[C@@H](C)O)C(C)C)C(C)C)C(=O)N[C@@H](CC(C)C)C(=O)N[C@@H](CCC(=O)O)C(=O)N[C@@H](CCC(=O)O)C(=O)O [SEQ ID NO: 2] (H-YSHGTFTSDVSKYLD[Aib]KKAAEFVAWLLEE-OH; N-terminus assumed)
- Ki [1]: > 2240 nM
- EC50 [2]: 0.0658 ± 0.0167 nM
- 4° C. % Main Peak 4 wk ([3]; RP-HPLC, pH 8, 4° C., 4 wk): 95.94%
- 30° C. % Main Peak 4 wk ([3]; RP-HPLC, pH 8, 30° C., 4 wk): 93.73%
- 40° C. % Main Peak 4 wk ([3]; RP-HPLC, pH 8, 40° C., 4 wk): 89.54%
- % Main Peak Day 0 ([3]; RP-HPLC, pH 8, day 0): 96.26%
- Solubility by visual assessment and RP-HPLC ([3]; pH 8): maintains good solubility
- RP-HPLC main peak change ([3]; pH 8, 4-wk 30° C. vs 4° C.): < 2.5%
- RP-HPLC main peak change ([3]; pH 8, 4-wk 40° C. vs 4° C.): < 7%
- 30° C. vs 4° C. Recovery 4 wk ([3]; pH 8, total peak area, 4 wk): 101%
- 40° C. vs 4° C. Recovery 4 wk ([3]; pH 8, total peak area, 4 wk): 99%
- Ki [4]: 8.63 ± 0.71 nM
- Ki [5]: 3.2 ± 0.76 nM
- Blood glucose levels after dosing ([6]; 1 μg/kg subcutaneously, 0 minutes): 132.0 ± 4.1 mg/dL
- Blood glucose levels after dosing ([6]; 1 μg/kg subcutaneously, 15 minutes): 203.0 ± 15.8 mg/dL
- Blood glucose levels after dosing ([6]; 1 μg/kg subcutaneously, 30 minutes): 220.4 ± 21.4 mg/dL
- Blood glucose levels after dosing ([6]; 1 μg/kg subcutaneously, 60 minutes): 171.6 ± 10.2 mg/dL
- Blood glucose levels after dosing ([6]; 1 μg/kg subcutaneously, 120 minutes): 168.9 ± 3.7 mg/dL
- Blood glucose levels after dosing ([6]; 3 μg/kg subcutaneously, 0 minutes): 147.8 ± 2.6 mg/dL
- Blood glucose levels after dosing ([6]; 3 μg/kg subcutaneously, 15 minutes): 246.4 ± 13.1 mg/dL
- Blood glucose levels after dosing ([6]; 3 μg/kg subcutaneously, 30 minutes): 274.9 ± 16.3 mg/dL
- Blood glucose levels after dosing ([6]; 3 μg/kg subcutaneously, 60 minutes): 201.1 ± 13.2 mg/dL
- Blood glucose levels after dosing ([6]; 3 μg/kg subcutaneously, 120 minutes): 172.8 ± 8.9 mg/dL
- Blood glucose levels after dosing ([6]; 10 μg/kg subcutaneously, 0 minutes): 146.0 ± 8.2 mg/dL
- Blood glucose levels after dosing ([6]; 10 μg/kg subcutaneously, 15 minutes): 257.3 ± 7.7 mg/dL
- Blood glucose levels after dosing ([6]; 10 μg/kg subcutaneously, 30 minutes): 294.0 ± 13.3 mg/dL
- Blood glucose levels after dosing ([6]; 10 μg/kg subcutaneously, 60 minutes): 222.2 ± 13.9 mg/dL
- Blood glucose levels after dosing ([6]; 10 μg/kg subcutaneously, 120 minutes): 147.0 ± 6.7 mg/dL
- ED50 (blood glucose increase) ([6]; calculated on the 30 minute glucose measurements, 10 μg/kg taken as maximum, subcutaneous): 3.34 µg/kg
- Ki [7]: > 3380 nM
- Fibrillation as measured by the Thioflavin T binding assay [8, 9]: did not demonstrate significant fibrillation
- Physical stability by visual assessment and Thioflavin T binding [8, 9]: maintains physical stability
- Thioflavin T fluorescence ([8]; Buffer 1 (20 mM Tris-HCl pH 8.0), t = 0 h): 193.9 flurescence units
- Thioflavin T fluorescence ([8]; Buffer 1 (20 mM Tris-HCl pH 8.0), t = 40 h): 201.6 flurescence units
- Thioflavin T fluorescence ([8]; Buffer 1 (20 mM Tris-HCl pH 8.0), t = 120 h): 226.1 flurescence units
- Thioflavin T fluorescence ([8]; Buffer 2 (20 mM Tris-HCl, 150 nM NaCl, pH 8.0), t = 0 h): 182.2 flurescence units
- Thioflavin T fluorescence ([8]; Buffer 2 (20 mM Tris-HCl, 150 nM NaCl, pH 8.0), t = 40 h): 210.1 flurescence units
- Thioflavin T fluorescence ([8]; Buffer 2 (20 mM Tris-HCl, 150 nM NaCl, pH 8.0), t = 120 h): 213.6 flurescence units
- Thioflavin T fluorescence ([8]; Buffer 3 (20 mM Tris-HCl, 300 mM sucrose, pH 8.0), t = 0 h): 263.3 flurescence units
- Thioflavin T fluorescence ([8]; Buffer 3 (20 mM Tris-HCl, 300 mM sucrose, pH 8.0), t = 40 h): 297.0 flurescence units
- Thioflavin T fluorescence ([8]; Buffer 3 (20 mM Tris-HCl, 300 mM sucrose, pH 8.0), t = 120 h): 310.9 flurescence units
- Thioflavin T fluorescence ([8]; Buffer 4 (20 mM Tris-HCl, 300 mM sorbitol, pH 8.0), t = 0 h): 260.9 flurescence units
- Thioflavin T fluorescence ([8]; Buffer 4 (20 mM Tris-HCl, 300 mM sorbitol, pH 8.0), t = 40 h): 285.1 flurescence units
- Thioflavin T fluorescence ([8]; Buffer 4 (20 mM Tris-HCl, 300 mM sorbitol, pH 8.0), t = 120 h): 311.2 flurescence units
- Thioflavin T fluorescence ([8]; Buffer 5 (20 mM Tris-HCl, 0.02% Tween 80, pH 8.0), t = 0 h): 251.7 flurescence units
- Thioflavin T fluorescence ([8]; Buffer 5 (20 mM Tris-HCl, 0.02% Tween 80, pH 8.0), t = 40 h): 281.7 flurescence units
- Thioflavin T fluorescence ([8]; Buffer 5 (20 mM Tris-HCl, 0.02% Tween 80, pH 8.0), t = 120 h): 306.8 flurescence units
